Measurements as given in US20030134863A1, “Preventives/remedies for alzheimer's disease” (priority 2000, published 2003).
“Also recorded” adds a separate entry of the source.

Assays:
blood LH = test: Suppression of blood LH in castrated monkeys; type: in vivo, cynomolgus monkeys (Macaca fascicularis); settings: castrated male cynomolgus monkeys
Source text: Suppression of blood LH in castrated monkeys
5-(N-Benzyl-N-methylaminomethyl)-1-(2,6-difluorobenzyl)-6-[4-(3-methoxyureido)phenyl]-3-phenythieno[2,3-d]pyrimidine-2,4(1H,3H)-dione hydrochloride was orally administered to castrated male cynomolgus monkeys (Macaca fascicularis), and blood LH was quantified. The male cynomolgus monkeys, used at 4 years 9 months to 6 years 3 months of age at time of experimentation, had been castrated more than 3 months prior to the examination. Test animals [n=3] were given 30 mg/kg (3 ml/kg) of 5-(N-benzyl-N-methylaminomethyl)-1-(2,6-difluorobenzyl)-6-[4-(3-methoxyureido)phenyl]-3-phenylthieno[2,3-d]pyrimidine-2,4(1H,3H)-dione hydrochloride suspended in 0.5% methylcellulose at a final concentration of 1% by oral administration, and control test animals [n=2] were given 3 ml/kg of the 0.5% methylcellulose dispersant alone by oral administration. At 24 hours and immediately before administration and at 2, 4, 6, 8, 24, and 48 hours after administration, blood was collected for heparinized plasma samples via the femoral vein and immediately stored under freezing conditions.
Plasma LH concentrations were determined by a bioassay using mouse testicular cells. The testicular cells were collected from male BALB/c mice (8 to 9 weeks of age) and washed three times with 1 ml of Dulbecco's modified Eagle medium (DMEM-H) containing 20 mM HEPES and 0.2% BSA per testis. After incubation at 37° C. for 1 hour, the cells were passed through a nylon mesh (70 μm) and dispensed at 8×10^5 cells/tube. After the cells were washed twice with 0.4 ml of DMEM-H, 0.4 ml of a DMEM-H solution containing either equine LH (Sigma), as the standard LH, or monkey plasma, finally diluted up to 300 fold, as the test sample, was added, followed by a reaction at 37° C. for 2 hours. The testosterone concentration in the culture supernatant was determined by a radioimmunoassay (CIS Diagnostics), and the LH concentration in the test monkey plasma was calculated from the standard curve for the standard equine LH. […]

LH, FSH concentrations = settings: patients of Alzheimer's disease, clinical test; cited from earlier work

Compound	blood LH concentration relative to the value immediately before administration (blood LH; 30 mg/kg oral in 0.5% methylcellulose, in 24 hours after administration, n=3) [%]	blood LH concentration at 48 hours after administration (blood LH; 30 mg/kg oral, 48 hours after administration)	effect on blood LH concentration (in words) (blood LH; 30 mg/kg oral, hydrochloride, 30 mg/kg)	LH, FSH concentrations (LH, FSH concentrations)	progress of Alzheimer's disease (LH, FSH concentrations)
CONC(=O)Nc1ccc(-c2sc3c(c2CN(C)Cc2ccccc2)c(=O)n(-c2ccccc2)c(=O)n3Cc2c(F)cccc2F)cc1.Cl [5-(N-benzyl-N-methylaminomethyl)-1-(2,6-difluorobenzyl)-6-[4-(3-methoxyureido)phenyl]-3-phenylthieno[2,3-d]pyrimidine-2,4(1H,3H)-dione hydrochloride]	≤ 20	re-elevation of the blood LH concentration was noted	rapid fall beginning immediately after administration; also recorded: significant decreasing effect on blood LH concentration		
CCNC(=O)[C@@H]1CCCN1C(=O)[C@H](CCCNC(=N)N)NC(=O)[C@H](CC(C)C)NC(=O)[C@@H](CC(C)C)NC(=O)[C@H](Cc1ccc(O)cc1)NC(=O)[C@H](CO)NC(=O)[C@H](Cc1c[nH]c2ccccc12)NC(=O)[C@H](Cc1c[nH]cn1)NC(=O)[C@@H]1CCC(=O)N1 [Leuplin]				lowers the LH, FSH concentrations	inhibits the progress of Alzheimer's disease
